According to PubChem BioAssay AID192 (DTP/NCI, 2004):
Where “and” joins values, the source holds several entries; their conditions need not be identical. Equal values may be shown once. Inconclusive results and toxic doses are left out. Peptide text beside a SMILES is read from it.

Tested on: BDF1 mice, B16 melanoma ip, median survival T/C
Assay: NCI In Vivo Anticancer Drug Screen. Data for tumor model B16 Melanoma (intraperitoneal) in B6D2F1 (BDF1) mice
Conditions: endpoint: median survival time, higher = longer survival
Procedure, shortened: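 Values are ratios of treated (T) to vehicle-control (C) measurements of survival or tumor size in tumor-bearing mice.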

[1] = dose: 10.0 mg/kg/injection, schedule: Q01DX009 (ip), vehicle: Klucel (hydroxypropylcellulose) (HPC)
[2] = dose: 50.0 mg/kg/injection, schedule: Q01DX009 (ip), vehicle: saline with Tween-80
[3] = dose: 100.0 mg/kg/injection, schedule: Q01DX009 (ip), vehicle: saline with Tween-80
[4] = dose: 200.0 mg/kg/injection, schedule: Q01DX009 (ip), vehicle: saline with Tween-80
[5] = dose: 100.0 mg/kg/injection, schedule: Q01DX009 (ip), vehicle: Klucel (hydroxypropylcellulose) (HPC)
[6] = dose: 100.0 mg/kg/injection, schedule: Q04DX003 (ip), vehicle: Klucel (hydroxypropylcellulose) (HPC)
[7] = dose: 200.0 mg/kg/injection, schedule: Q01DX009 (ip), vehicle: Klucel (hydroxypropylcellulose) (HPC)
[8] = dose: 200.0 mg/kg/injection, schedule: Q04DX003 (ip), vehicle: Klucel (hydroxypropylcellulose) (HPC)
[9] = dose: 400.0 mg/kg/injection, schedule: Q01DX009 (ip), vehicle: Klucel (hydroxypropylcellulose) (HPC)
[10] = dose: 6.25 mg/kg/injection, schedule: Q01DX009 (ip), vehicle: saline
[11] = dose: 25.0 mg/kg/injection, schedule: Q01DX009 (ip), vehicle: saline
[12] = dose: 50.0 mg/kg/injection, schedule: Q01DX009 (ip), vehicle: saline
[13] = dose: 100.0 mg/kg/injection, schedule: Q01DX009 (ip), vehicle: saline
[14] = dose: 6.25 mg/kg/injection, schedule: Q01DX009 (ip), vehicle: Klucel (hydroxypropylcellulose) (HPC)
[15] = dose: 12.5 mg/kg/injection, schedule: Q01DX009 (ip), vehicle: saline with Tween-80
[16] = dose: 25.0 mg/kg/injection, schedule: Q01DX009 (ip), vehicle: saline with Tween-80
[17] = dose: 12.5 mg/kg/injection, schedule: Q01DX009 (ip), vehicle: Klucel (hydroxypropylcellulose) (HPC)
[18] = dose: 25.0 mg/kg/injection, schedule: Q01DX009 (ip), vehicle: Klucel (hydroxypropylcellulose) (HPC)

CC(C)C(NC(=O)C(NC(=O)C(CCCN=C(N)N)NC(=O)C(N)CCCCN)C(C)C)C(N)=O (stereo not drawn) (H-KRVV-NH2; configuration not given here)
T/C (dose: 25.0 mg/kg/injection, schedule: Q01DX009 (ip), vehicle: water): 97 % of control | T/C (dose: 50.0 mg/kg/injection, schedule: Q01DX009 (ip), vehicle: water): 96 % of control | T/C (dose: 100.0 mg/kg/injection, schedule: Q01DX009 (ip), vehicle: water): 96 % of control | T/C (dose: 200.0 mg/kg/injection, schedule: Q01DX009 (ip), vehicle: water): 99 % of control

CCC(C)C#N (stereo not drawn)
T/C (dose: 5.0 mg/kg/injection, schedule: Q01DX009 (ip), vehicle: saline): 97 % of control | T/C (dose: 10.0 mg/kg/injection, schedule: Q01DX009 (ip), vehicle: saline): 95 % of control | T/C (dose: 20.0 mg/kg/injection, schedule: Q01DX009 (ip), vehicle: saline): 100 % of control

COc1cc2c(c(OC)c1OC)-c1cc3c(cc1[C@@H](OC(C)=O)[C@@H]1COC(=O)[C@H]1C2)OCO3
T/C (dose: 1.25 mg/kg/injection, schedule: Q01DX009 (ip), vehicle: Klucel (hydroxypropylcellulose) (HPC)): 104 % of control | T/C (dose: 2.5 mg/kg/injection, schedule: Q01DX009 (ip), vehicle: Klucel (hydroxypropylcellulose) (HPC)): 94 % of control | T/C (dose: 5.0 mg/kg/injection, schedule: Q01DX009 (ip), vehicle: Klucel (hydroxypropylcellulose) (HPC)): 104 % of control | T/C [1]: 102 % of control

COC(=O)C(Br)C1CCCCC1 (stereo not drawn)
T/C [2]: 100 % of control | T/C [3]: 103 % of control | T/C [4]: 99 % of control

CC(C)CC(N)C(=O)NCC(=O)NC(Cc1ccccc1)C(=O)O (stereo not drawn) (H-Leu-Gly-Phe-OH; configuration not given here)
T/C [5]: 93 % of control | T/C [6]: 95 % of control | T/C [7]: 91 % of control | T/C [8]: 97 % of control | T/C [9]: 89 % of control | T/C (dose: 400.0 mg/kg/injection, schedule: Q04DX003 (ip), vehicle: Klucel (hydroxypropylcellulose) (HPC)): 102 % of control

O=C1NC(c2ccccc2)C(=O)N1CCN(CCCl)CCCl (stereo not drawn)
T/C (dose: 1.56 mg/kg/injection, schedule: Q01DX009 (ip), vehicle: saline): 89 % of control and 109 % of control | T/C (dose: 3.12 mg/kg/injection, schedule: Q01DX009 (ip), vehicle: saline): 95 % of control and 114 % of control | T/C [10]: 123 % of control | T/C [11]: 115 % of control

C[N+](C)(C)c1ncnc2c1ncn2C1CCCO1 (stereo not drawn)
T/C [10]: 111 % of control | T/C (dose: 12.5 mg/kg/injection, schedule: Q01DX009 (ip), vehicle: saline): 105 % of control | T/C [11]: 108 % of control | T/C [12]: 111 % of control | T/C [13]: 117 % of control

C[As](C)Sc1ncccn1
T/C (dose: 3.13 mg/kg/injection, schedule: Q01DX009 (ip), vehicle: Klucel (hydroxypropylcellulose) (HPC)): 100 % of control | T/C [14]: 100 % of control

O=CN(SSN(C=O)C1CCCCC1)C1CCCCC1
T/C [15]: 110 % of control | T/C [16]: 100 % of control | T/C [2]: 98 % of control | T/C [3]: 102 % of control | T/C [4]: 88 % of control

CCOc1ccccc1NC(=O)COc1ccc(Cl)cc1
T/C [5]: 106 % of control | T/C [7]: 96 % of control | T/C [9]: 100 % of control

CC1CCC2(C(=O)O)CCC3(C)C(=CCC4C5(C)CCC(O)C(C)(C)C5CCC43C)C2C1C (stereo not drawn)
T/C [5]: 98 % of control | T/C [7]: 91 % of control

O=C(CCl)N1c2ccccc2Oc2cc3ccccc3cc21
T/C [12]: 113 % of control | T/C [13]: 106 % of control | T/C (dose: 200.0 mg/kg/injection, schedule: Q01DX009 (ip), vehicle: saline): 104 % of control | T/C (dose: 400.0 mg/kg/injection, schedule: Q01DX009 (ip), vehicle: saline): 109 % of control

S=C(Nc1ccccc1)Nc1ccccc1S
T/C [5]: 95 % of control and 107 % of control | T/C [7]: 98 % of control and 111 % of control

CCC(=O)c1ccccc1NC(C)=O
T/C [5]: 102 % of control | T/C [7]: 98 % of control | T/C [9]: 97 % of control

CCOC(=O)/C(C(C)=O)=C(/O)c1ccc(OC(F)(F)C(F)Cl)cc1OC(F)(F)C(F)Cl.CCOC(=O)/C(C(C)=O)=C(/O)c1ccc(OC(F)(F)C(F)Cl)cc1OC(F)(F)C(F)Cl.[Cu] (stereo not drawn)
T/C [17]: 89 % of control | T/C [18]: 88 % of control

C[C@H]1C[C@@H]2[C@H]([C@@H](O)C[C@@]3(C)[C@H]2CC[C@]3(O)C(=O)CO)[C@@]2(C)C=CC(=O)C=C12
T/C [14]: 115 % of control | T/C [17]: 115 % of control | T/C [18]: 117 % of control | T/C [5]: 116 % of control | T/C [7]: 112 % of control

OCC1OC(n2cnc3cc(Cl)c(Cl)cc32)C(O)C1O (stereo not drawn)
T/C (dose: 6.25 mg/kg/injection, schedule: Q01DX009 (ip), vehicle: saline with Tween-80): 101 % of control and 117 % of control | T/C [15]: 100 % of control and 104 % of control and 113 % of control | T/C [16]: 97 % of control and 113 % of control and 114 % of control | T/C [2]: 107 % of control and 116 % of control | T/C [3]: 102 % of control and 121 % of control

c1ccc(-c2cnoc2-c2ccccc2)cc1
T/C (dose: 50.0 mg/kg/injection, schedule: Q01DX009 (ip), vehicle: Klucel (hydroxypropylcellulose) (HPC)): 100 % of control | T/C [5]: 107 % of control | T/C [7]: 100 % of control

CSCCC1NC(=O)C(/C(C)=N\NC(N)=O)=C1O (stereo not drawn)
T/C [16]: 111 % of control | T/C [2]: 105 % of control | T/C [3]: 96 % of control | T/C [4]: 96 % of control

CCC(C)C1NC(=O)C(NC(=O)c2c3nc4c(C(=O)NC5C(=O)NC(C(C)CC)C(=O)N6CCCC6C(=O)N(C)CC(=O)N(C)C(C(C)C)C(=O)OC5C)cc(N)c(C)c4oc-3c(C)c(=O)c2N)C(C)OC(=O)C(C(C)C)N(C)C(=O)CN(C)C(=O)C2CCCN2C1=O (stereo not drawn)
T/C (dose: 12.5 micrograms/kg/injection, schedule: Q01DX009 (ip), vehicle: water): 110 % of control | T/C (dose: 25.0 micrograms/kg/injection, schedule: Q01DX009 (ip), vehicle: water): 104 % of control | T/C (dose: 118.0 micrograms/kg/injection, schedule: Q01DX009 (ip), vehicle: water): 161 % of control | T/C (dose: 400.0 micrograms/kg/injection, schedule: Q01DX009 (ip), vehicle: water): 159 % of control

COC(=O)C1CCC(C(=O)O)CC1 (stereo not drawn)
T/C [6]: 100 % of control | T/C [8]: 100 % of control

Clc1nc(SC2=NCCN2)c2[nH]cnc2n1
T/C (dose: 1.25 mg/kg/injection, schedule: Q01DX009 (ip), vehicle: saline with Tween-80): 93 % of control | T/C (dose: 2.5 mg/kg/injection, schedule: Q01DX009 (ip), vehicle: saline with Tween-80): 97 % of control | T/C (dose: 5.0 mg/kg/injection, schedule: Q01DX009 (ip), vehicle: saline with Tween-80): 101 % of control | T/C (dose: 10.0 mg/kg/injection, schedule: Q01DX009 (ip), vehicle: saline with Tween-80): 101 % of control and 103 % of control

COc1ccc(CN(CCOC(=O)c2ccc(OC)cc2)CCN(CCOC(=O)c2ccc(OC)cc2)Cc2ccc(OC)cc2)cc1
T/C (dose: 3.12 mg/kg/injection, schedule: Q01DX009 (ip), vehicle: other): 100 % of control | T/C (dose: 6.25 mg/kg/injection, schedule: Q01DX009 (ip), vehicle: other): 89 % of control | T/C (dose: 12.5 mg/kg/injection, schedule: Q01DX009 (ip), vehicle: other): 90 % of control | T/C (dose: 25.0 mg/kg/injection, schedule: Q01DX009 (ip), vehicle: other): 92 % of control

c1cc2cc3c(cc2cc1CC1=NCCc2cc4c(cc21)OCO4)OCO3
T/C (dose: 150.0 mg/kg/injection, schedule: Q01DX009 (ip), vehicle: other): 102 % of control

CC(C)C(=O)[O][Sn]([c]1ccccc1)([c]1ccccc1)[c]1ccccc1
T/C (dose: 3.0 mg/kg/injection, schedule: Q01DX009 (ip), vehicle: saline with Tween-80): 108 % of control | T/C (dose: 6.0 mg/kg/injection, schedule: Q01DX009 (ip), vehicle: saline with Tween-80): 105 % of control | T/C (dose: 12.0 mg/kg/injection, schedule: Q01DX009 (ip), vehicle: saline with Tween-80): 124 % of control | T/C [15]: 100 % of control

C/C(C/C(C)=N/O)=N/O.C/C(C/C(C)=N/O)=N\O.[Cl][Rh][Cl]
T/C [2]: 96 % of control | T/C [3]: 98 % of control | T/C [4]: 96 % of control | T/C (dose: 400.0 mg/kg/injection, schedule: Q01DX009 (ip), vehicle: saline with Tween-80): 92 % of control

CNc1ncnc2c1cnn2C
T/C [1]: 97 % of control | T/C (dose: 20.0 mg/kg/injection, schedule: Q01DX009 (ip), vehicle: Klucel (hydroxypropylcellulose) (HPC)): 89 % of control | T/C (dose: 40.0 mg/kg/injection, schedule: Q01DX009 (ip), vehicle: Klucel (hydroxypropylcellulose) (HPC)): 89 % of control

ClC1OC(Cl)(Cl)C(Cl)(Cl)OC1(Cl)Cl (stereo not drawn)
T/C [5]: 93 % of control | T/C [7]: 93 % of control | T/C [9]: 86 % of control
